{"source": "patent US20100184673A1", "about": "“USE OF PARATHYROID HORMONE ( 1-34 ) AS ANTI-HIV AGENT” (priority 2007, published 2010)", "test_system": "drug-resistant Mycobacterium tuberculosis", "conditions": "peptide 10 micrograms per ml, seven days", "data": [{"smiles": "CC[C@H](C)[C@H](NC(=O)[C@H](CCC(=O)O)NC(=O)[C@H](CO)NC(=O)[C@@H](NC(=O)[C@@H](N)CO)C(C)C)C(=O)N[C@@H](CCC(N)=O)C(=O)N[C@@H](CC(C)C)C(=O)N[C@@H](CCSC)C(=O)N[C@@H](Cc1cnc[nH]1)C(=O)N[C@@H](CC(N)=O)C(=O)N[C@@H](CC(C)C)C(=O)NCC(=O)N[C@@H](CCCCN)C(=O)N[C@@H](Cc1cnc[nH]1)C(=O)N[C@@H](CC(C)C)C(=O)N[C@@H](CC(N)=O)C(=O)N[C@@H](CO)C(=O)N[C@@H](CCSC)C(=O)N[C@@H](CCC(=O)O)C(=O)N[C@@H](CCCN=C(N)N)C(=O)N[C@H](C(=O)N[C@@H](CCC(=O)O)C(=O)N[C@@H](Cc1c[nH]c2ccccc12)C(=O)N[C@@H](CC(C)C)C(=O)N[C@@H](CCCN=C(N)N)C(=O)N[C@@H](CCCCN)C(=O)N[C@@H](CCCCN)C(=O)N[C@@H](CC(C)C)C(=O)N[C@@H](CCC(N)=O)C(=O)N[C@@H](CC(=O)O)C(=O)N[C@H](C(=O)N[C@@H](Cc1cnc[nH]1)C(=O)N[C@@H](CC(N)=O)C(=O)N[C@@H](Cc1ccccc1)C(=O)O)C(C)C)C(C)C", "note": "[pTH (1-34)]", "values": [{"measurement": "% inhibition", "result": 0.0, "unit": "%"}]}]}
